Reference: patent publication US11072617B2, “Bicyclic sulfones and sulfoxides and methods of use thereof” (Genentech, Inc., priority 2017, dated 2021)
pKi: −log10 of the molar value.

Target: human RIP1 kinase domain (2-375) (Homo sapiens (Human), UniProt Q13546)
Assay: RIP1 kinase inhibition biochemical assay (Transcreener ADP, fluorescence polarization)
Details: Ki app from tight-binding Morrison equation; 50 nM enzyme, 50 uM ATP, 2 hours incubation
How it was run: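 Baculovirus-expressed human RIP1 kinase domain (2-375), 50 nM, incubated 2 h with compounds in pH 7.5 Hepes, 30 mM MgCl2, 50 uM ATP, 0.5% DMSO. ADP detected by Transcreener fluorescence-polarization tracer displacement; Ki^app from Morrison tight-binding fit.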

Chain of human RIP1 kinase domain (2-375) (Q13546 2-375): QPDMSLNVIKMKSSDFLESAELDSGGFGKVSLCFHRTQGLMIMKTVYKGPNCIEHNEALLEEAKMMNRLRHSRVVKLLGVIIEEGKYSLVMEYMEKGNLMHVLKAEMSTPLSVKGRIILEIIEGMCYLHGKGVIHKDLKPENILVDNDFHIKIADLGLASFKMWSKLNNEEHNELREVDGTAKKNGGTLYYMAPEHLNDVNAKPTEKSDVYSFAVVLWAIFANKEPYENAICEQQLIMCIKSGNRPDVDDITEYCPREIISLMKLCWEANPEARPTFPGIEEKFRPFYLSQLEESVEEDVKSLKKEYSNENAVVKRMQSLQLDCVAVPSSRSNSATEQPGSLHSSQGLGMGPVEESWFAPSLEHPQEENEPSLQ

SMILES | pKi
O=S(=O)(c1nc2n(n1)[C@H](c1ccc(F)c(F)c1)C[C@@H]2F)C(F)F (single isomer, unassigned) [Example 63] | 7.47
[O-][S+](c1nc2n(n1)[C@H](c1ccccc1)C[C@@H]2F)C(F)(F)F (stereo partly drawn) [Example 132, (5S,7S)-7-fluoro-5-phenyl-2-(trifluoromethylsulfinyl)-6,7-dihydro-5H-pyrrolo[1,2-b][1,2,4]triazole] | 7.96
[O-][S@@+](CF)c1nc2n(n1)[C@H](c1ccccc1F)C[C@@H]2F (single isomer, unassigned) [Example 74] | > 8.30
C[S+]([O-])c1nc2n(n1)[C@H](c1ccccc1)C[C@@H]2F (stereo partly drawn) [Example 105, (5S,7S)-7-fluoro-2-methylsulfinyl-5-phenyl-6,7-dihydro-5H-pyrrolo[1,2-b][1,2,4]triazole] | 7.34
O=S(=O)(c1nc2n(n1)[C@H](c1cc(F)cc(F)c1)C[C@@H]2F)[C@H]1C[C@H](F)C1 (single isomer, unassigned) [Example 193] | 7.64
O=S(=O)(c1nc2n(n1)[C@H](c1ccccc1)C[C@@H]2F)[C@@H]1CC1(F)F (single isomer, unassigned) [Example 131] | 8.40
O=S(=O)(c1nc2n(n1)[C@H](c1cc(F)ccc1F)C[C@@H]2F)[C@@H]1CC1(F)F (single isomer, unassigned) [Example 127] | 8.22
N#C[C@H]1C[C@@H](S(=O)(=O)c2nc3n(n2)[C@H](c2ccccc2)C[C@@H]3F)C1 [Example 210, Cis-3-[[(5S,7S)-7-fluoro-5-phenyl-6,7-dihydro-5H-pyrrolo[1,2-b][1,2,4]triazol-2-yl]sulfonyl]cyclobutanecarbonitrile] | 7.26
CC(C)[S+]([O-])c1nc2n(n1)[C@H](c1ccccc1)C[C@@H]2F (stereo partly drawn) [Example 109, (5S,7S)-7-fluoro-2-isopropylsulfinyl-5-phenyl-6,7-dihydro-5H-pyrrolo[1,2-b][1,2,4]triazole] | 7.72
[O-][S@+](c1nc2n(n1)[C@H](c1cccc(F)c1)C[C@@H]2F)C(F)F (single isomer, unassigned) [Example 182] | 8.22
O=S(=O)(c1nc2n(n1)[C@H](c1ccccc1F)C[C@@H]2F)C(F)(F)F (single isomer, unassigned) [Example 133] | 8.40
O=S(=O)(c1nc2n(n1)[C@H](c1ccccc1F)C[C@@H]2F)C1CC1 [Example 33, (5S,7S)-2-cyclopropylsulfonyl-7-fluoro-5-(2-fluorophenyl)-6,7-dihydro-5H-pyrrolo[1,2-b][1,2,4]triazole] | 8.30
O=S(=O)(c1nc2n(n1)[C@H](c1ccccc1)C[C@@H]2F)[C@H]1C[C@@H]1F (single isomer, unassigned) [Example 146] | 8.40
O=S(=O)(c1nc2n(n1)[C@H](c1cccc(F)c1F)C[C@@H]2F)C(F)(F)F (single isomer, unassigned) [Example 136] | > 8.30
CC(C)[S@+]([O-])c1nc2n(n1)[C@H](c1ccccc1)C[C@@H]2F (single isomer, unassigned) [Example 189] | 6.12
CC(C)(C)[S+]([O-])c1nc2n(n1)[C@H](c1ccccc1)C[C@@H]2F (stereo partly drawn) [Example 24, (5S,7S)-2-(tert-butylsulfinyl)-7-fluoro-5-phenyl-6,7-dihydro-5H-pyrrolo[1,2-b][1,2,4]triazole] | 7.70
O=S(=O)(c1nc2n(n1)[C@H](c1cc(F)cc(F)c1)C[C@@H]2F)C(F)F (single isomer, unassigned) [Example 69] | > 8.30
[O-][S+](c1nc2n(n1)[C@H](c1ccccc1)C[C@@H]2F)C1CC(F)(F)C1 (stereo partly drawn) [Example 49, (5S,7S)-2-(3,3-difluorocyclobutyl)sulfinyl-7-fluoro-5-phenyl-6,7-dihydro-5H-pyrrolo[1,2-b][1,2,4]triazole] | 7.92
[O-][S@+](CF)c1nc2n(n1)[C@H](c1cc(F)cc(F)c1)C[C@@H]2F (single isomer, unassigned) [Example 85] | 6.74
